The results in this text go back to patent publication US10301298B2, “Methods, compounds, and compositions for the treatment of angiotensin-related diseases” (University of Southern California, priority 2013, dated 2019).

One data set deals with C57Bl/6 mice. The data set can be described thus: Acute toxicity in C57Bl/6 mice. The class given is in vivo. Conditions: 500 μg/kg subcutaneous or intravenous, 7 days after treatment. Here is the method: Compound 7 was evaluated for acute toxicity at 500 μg/kg in C57Bl/6 mice that was given as either a subcutaneous or intravenous injection, and its safety was evaluated for 7 days after treatment.

Data set [1] has as its target T1, Mas (Homo sapiens, UniProt P04201).
T1 construct: expressed in transfected cells
T1 sequence (P04201 1-325): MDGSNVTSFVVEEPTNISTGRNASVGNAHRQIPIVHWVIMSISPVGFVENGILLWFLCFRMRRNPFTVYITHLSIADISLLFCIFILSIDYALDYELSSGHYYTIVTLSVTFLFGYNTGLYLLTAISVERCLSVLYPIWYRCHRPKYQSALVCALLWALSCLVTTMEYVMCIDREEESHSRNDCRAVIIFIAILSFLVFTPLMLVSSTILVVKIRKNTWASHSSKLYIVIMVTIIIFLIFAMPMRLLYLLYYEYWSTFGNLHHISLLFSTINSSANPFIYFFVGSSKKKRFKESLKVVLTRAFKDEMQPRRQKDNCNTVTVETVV
The data set can be described thus: Competition binding assay, displacement of fluorescent Ang(1-7) from Mas-transfected CHO cells. Set-up: concentration or dose not given beside the values. As to conditions: CHO cells transfected with Human mas1, on ice. The protocol:
CHO cells stably transfected with recombinant Human mas1 proto-oncogen driven by the human cytomegalovirus were grown to 80% confluency. The cells were detached with trypsin and harvested by centrifugation. Cells were washed three times in progressively colder buffers. The final number of cells per assay was 5×10^5. All subsequent steps were performed on ice. Test compound was added to the cells for 10 minutes prior to addition of fluorescently labeled A(1-7). After 10 minutes further incubation, the cells were washed to remove unbound A(1-7) and the fluorescence bound was read at an excitation of 490 nm and an emission of 520 nm.

In data set [2] the test system is db/db mice. The data set can be described thus: Bone marrow cell counts and progenitor colonies in db/db mice. As to conditions: 500 mcg/kg/day subcutaneously, 14 days. The class given is in vivo. The protocol: The femurs and tibia were collected from db/db mice treated 500 mcg/kg/day Ang(1-7) or Compound 7 subcutaneously for 14 days were euphanized and the bone marrow were collected by flushing with PBS containing 2% fetal calf serum. After collection of the bone marrow, the red blood cells will be lysed with a hypotonic solution (described above), mixed with 0.04% trypan blue and the number of nucleated cells was assessed by hematocytometer under light microscopy. Aliquots of cells were then resuspended at 1×10^6 cells/ml (GM and GEMM, bone marrow), 1.5×10^6 cells/ml (BFU-E, bone marrow). One hundred μ1 of each suspension was added to 900 μl of semisolid medium containing 0.9% methyl cellulose in Iscove's MDM, 15% fetal calf serum, 1% bovine serum albumin, 10 μg/ml bovine pancreatic insulin, 200 μg/ml human transferrin, 10^−4 M 2-mercaptoethanol, 2 mM glutamine, 10 ng/ml recombinant murine interleukin 3, 10 ng/ml recombinant human interleukin 6, 50 ng/ml recombinant murine stem cell factor and 3 units/ml erthropoietin. This mixture was then added to duplicate wells of a 24 well plate. The cultures were then placed at 37° C. in a humidified atmosphere of 5% CO2 in air. At day 14, the number of progenitor colonies formed was enumerated under phase contrast microscopy.
The bone marrow cells were also cultured to assess the number of MSCs by a CFU—F assay. 2.5×10^5 cells/ml, 2 ml per well, were diluted into Mesencult medium (Stem Cell Technologies, Vancouver, BC, Canada) and 2 mL were placed in each well of a 24 well plate. The cultures were then incubated at 37° C. in a humidified atmosphere of 5% CO2 in air. At days 2, 5 and 8, the number of progenitor colonies formed was enumerated under phase contrast microscopy.

The next data set has as its target T2, AT2R (Homo sapiens, UniProt P50052).
T2 sequence (P50052 1-363): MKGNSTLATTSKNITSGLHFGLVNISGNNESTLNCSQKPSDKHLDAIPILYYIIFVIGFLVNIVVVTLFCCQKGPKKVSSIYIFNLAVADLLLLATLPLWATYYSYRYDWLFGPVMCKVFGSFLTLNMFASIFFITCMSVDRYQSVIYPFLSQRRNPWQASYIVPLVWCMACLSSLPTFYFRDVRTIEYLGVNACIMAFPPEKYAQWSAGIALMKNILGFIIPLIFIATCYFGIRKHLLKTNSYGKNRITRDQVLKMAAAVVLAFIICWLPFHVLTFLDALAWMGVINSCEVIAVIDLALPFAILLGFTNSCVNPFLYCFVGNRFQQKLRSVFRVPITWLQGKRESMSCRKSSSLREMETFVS
The data set can be described thus: AT2R displacement assay with radiolabeled Ang II. The class given is binding. Conditions: displacement of radiolabeled Ang II or analogs; read-out: EC50 displacing Ang II in the AT2R displacement assay. The protocol: Compound 7 was evaluated in vitro for its ability to compete with ratholabeled Ang II or analogs in a displacement assay for AT1R and AT2R receptors.

Data set [3] concerns the target T1, Mas. The data set can be described thus: NO production in CHO cells stably transfected with Human Mas1. It is filed as cell-based. Conditions: for NO production with co-administration of A779: with A779, selective Mas antagonist, 1×10^−7 M. Here is the method: Transfected cells that express Mas were used to identify and evaluate provided compounds as Mas agonists, by promoting NO production as readouts. CHO cells stably transfected with pTEJ-8 vector containing recombinant Human Mas1 clone were grown to confluency. Cells were washed three times for 30/5/5 minutes with prewarmed (37° C.) Tyrodes Salts (supplemented with 1 g/L NaHCO3, and 1.9 g/L d-Glucose). Cells were incubated for a short time in 700 μL of supplemented Tyrodes salts containing 10 μM PTIO, 100 μM DAN, and 1 mM L-arginine. When using antagonist for competition assays, cells were exposed to the inhibitor at 1×10^−7 M for 15 minutes, before additional drugs are added.
Chemicals (10^−8 to 10^−6 M or the maximum concentration found not to cause cytotoxicity) to be screened were added to the cell medium and the plates were agitated for 1 minute before being placed into the incubator for 2 hours. After 2 hours, cellular supernatants were transferred to opaque 96 well plates, and the fluorescence intensity was recorded at an ex/em of 380/425.

In data set [4] the test system is db/db mice. The data set can be described thus: Liver lipid levels, Oil Red O staining, in db/db mice. It is filed as in vivo. As to conditions: 500 mcg/kg/day, 14 days. The protocol:
The lipid levels found in the liver was evaluated in db/db animals treated for 14 days with vehicle, 500 mcg/kg/day Ang(1-7) or Compound 7. Livers isolated from mice were harvested. Liver tissue sections were washed with cold saline and frozen in the presence of optimum cutting temperature (OCT) formulation. Tissues were then cut into 10-μm sections using a cryostat. Oil Red O staining and H&E staining were performed according to published procedures (Yang et al., 2013). The tissues were observed and images acquired using a light microscope (Olympus BX51) (FIG. 6).

For `CCCCOC(=O)NS(=O)(=O)c1ccc(OC(F)(F)F)cc1-c1ccc(Cn2ccnc2)cn1` [Compound 7, butyl (2-(5-((1H-imidazol-1-yl)methyl)pyridin-2-yl)-4-(trifluoromethoxy)phenyl)sulfonylcarbamate], the acute toxicity result in the data set on C57Bl/6 mice was “No overt signs of toxicity”. Besides, the “% Displacement” value at Mas [1] was 28.1%. Besides, the bone marrow counts entry is “increase bone marrow counts” in the data set with db/db mice [2] and “increased the bone marrow counts” in the data set with db/db mice [2] (listed as compound 7). In the data set on db/db mice [2], the “increase in bone marrow cell number, CFU-GEMM, CFU-GM, BFU-E and MSC” value is on record as “comparable to Ang(1-7)”. In addition, the EC50 at AT2R was over 10000 nM; at Mas [3] (Mas-transfected CHO cells, 2 hours), 10 nM. For the same compound, the “ability to enhance NO production (fluorescence)” value at Mas [3] (Mas-transfected CHO cells) is on record as “concentration dependent increase in NO”. Also, the “NO production with co-administration of A779” value is given as “back to baseline” at Mas [3] and “back to baseline fluorescence” at Mas [3] (listed as compound 7). In the data set on db/db mice [4], the “Oil Red staining of liver (lipid deposition) compared with db/db controls” value is “reduced Oil Red staining”.
